Results on three molecules are retold here after patent US4220647A, “1,2,3,4-Tetrahydroisoquinolines and the preparation thereof” (Fujisawa Pharmaceutical Co., Ltd., priority 1974, dated 1980).

This assay deals with Intestinal motility in dogs (jejunum). As to the kind of experiment: Intestinal motility in dogs (inhibition of jejunal motility, balloon method). It counts as in vivo, dog (mongrel). Conditions: Canis lupus familiaris; mongrel dogs 8 to 16 kg, urethane (1.5 g/kg) and morphine (15 mg/kg) anesthesia; balloon at jejunum, 10 cm H2O; maximum change in motility amplitude; route not given; read-out: 50% inhibition dose (ED50). On the procedure:
Intestinal motility in dogs: Method: Mongrel dogs weighing 8 to 16 kg which were withheld from any food and water for 24 hours were anesthetized with a combination of urethane (1.5 g/kg) and morphine (15 mg/kg). A balloon was placed at the jejunum of the dog, compressed at a pressure of 10 cm. H2 O and connected to a strain gauge. Changes in the motility were principally recorded in terms of the amplitude of the movements, but the number of movements occurring were also taken into account. The maximum change in all the determinations served as the basis for calculations of the 50% inhibition dose (ED50).
Consider `Oc1cc2c(cc1O)C(CNc1ccc(F)cc1)NCC2` (stereo not drawn) [Compound No. 1, 1-(p-Fluoroanilinomethyl)-6,7-dihydroxy-1,2,3,4-tetrahydroisoquinoline d-camphor-10-sulfonate], for which the ED50 amounted to 3 µg/kg.
With `Cl.Oc1cc2c(cc1O)C(CNc1ccc(Cl)cc1)NCC2` (stereo not drawn) [Compound No. 2, 1-(p-Chloroanilinomethyl)-6,7-dihydroxy-1,2,3,4-tetrahydroisoquinoline hydrochloride] the figure was 1.5 µg/kg.
Take `Cl.Cl.Oc1ccc(NCC2NCCc3cc(O)c(O)cc32)cc1` (stereo not drawn) [Compound No. 3, 1-(p-Hydroxyanilinomethyl)-6,7-dihydroxy-1,2,3,4-tetrahydroisoquinoline dihydrochloride]: the 50% effective dose (ED50) is 4 µg/kg.

The term ED50 denotes the midpoint of the dose-response relation.
